According to patent US9594084B2, “Phosphorylation of histones and uses thereof” (H. LEE MOFFITT CANCER CENTER AND RESEARCH INSTITUTE, priority 2012, dated 2017):

Legend:
[1] = system: pTyr37-H2B upstream of the Hist1 cluster; test: Native ChIP-qPCR with pTyr37-H2B antibody at Hist1 Site I and II in synchronized MEFs; assay type: cell-based, mouse; settings: 6.30 hours post-release
Protocol: FIG. 1A is a diagram illustrating the position of histone genes in mouse Hist1 subcluster 1 showing two pTyr37-H2B binding sites. Starting nucleotide position is shown above. Subclusterl is conserved between human and mouse. FIG. 1B-1D are bar graphs showing Native Chromatin immunoprecipitation (ChIP) (% input DNA) in synchronized MEFs treated with WEE1 inhibitor or untreated and harvested at 0 and 6.30 hours post-release. Native ChIP was performed using pTyr37-H2B or IgG antibodies followed by quantitative PCR using primers corresponding to Site I (FIG. 1B), Site II (FIG. 1C) and control site (FIG. 1D). Data shown are representative of three independent experiments. *p=0.001; **p=0.006. FIG. 1E is bar graph showing ChIP in synchronized MEFs harvested at 0 and 6.30 hours post-release using WEE1 or IgG antibodies followed by quantitative PCR using primers corresponding to Site II. […] FIG. 1F is bar graph showing ChIP in cells transfected with control or WEE1 siRNAs performed using pTyr37-H2B antibodies followed by quantitative PCR using primers corresponding to Site II. […]
As a first step, extensive standardization of pTyr37-H2B antibodies were performed for its usage in ChIP. […] Pellets were resuspended and the resulting DNA was quantified on a NanoDrop spectrophotometer. Extrapolation to the original chromatin volume allowed quantitation of the total chromatin yield. […]

WEE1 [2] = molecular target: T1, WEE1 (Homo sapiens, UniProt P30291); test: Peptide Immunosandwich Assay (PIA) with GBM tumor lysates; assay type: biochemical; settings: 100 ug of lysates, 10 uM for 30 minutes
T1 sequence (P30291 whole entry): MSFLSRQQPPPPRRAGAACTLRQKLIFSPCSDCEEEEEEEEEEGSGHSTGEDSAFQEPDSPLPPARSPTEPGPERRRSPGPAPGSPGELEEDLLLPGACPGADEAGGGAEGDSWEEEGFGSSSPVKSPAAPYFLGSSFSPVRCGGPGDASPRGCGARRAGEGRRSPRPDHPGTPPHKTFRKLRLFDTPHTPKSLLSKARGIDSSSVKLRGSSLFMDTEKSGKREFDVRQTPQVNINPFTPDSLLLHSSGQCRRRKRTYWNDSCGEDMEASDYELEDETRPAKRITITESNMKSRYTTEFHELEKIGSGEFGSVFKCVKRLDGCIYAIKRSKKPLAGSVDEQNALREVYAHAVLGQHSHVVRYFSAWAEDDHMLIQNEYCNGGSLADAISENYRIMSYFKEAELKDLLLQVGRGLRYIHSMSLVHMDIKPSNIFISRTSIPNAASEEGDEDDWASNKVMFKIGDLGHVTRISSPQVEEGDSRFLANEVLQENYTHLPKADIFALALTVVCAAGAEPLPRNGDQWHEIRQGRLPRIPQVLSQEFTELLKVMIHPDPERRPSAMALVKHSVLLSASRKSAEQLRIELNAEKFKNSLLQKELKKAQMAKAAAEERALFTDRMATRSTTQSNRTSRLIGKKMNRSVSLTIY
Protocol: Threshold interval is shown.
In brief, Streptavidin coated 96-well plates (R&D systems) were incubated with biotinylated human histone H2B derived peptides […] (SEQ ID NO: 62, Y37 site is underlined). H2B derived phospho-peptide KRSRKESp[…] (SEQ ID NO: 63) was used as positive control. Any unbound areas on the plate were blocked with 3% BSA. Next, purified WEE1 protein (100 ng) prepared in kinase buffer (20 mM HEPES, 225 mM NaCl, 1% Triton X-100, 10% glycerol, phosphatase and protease inhibitors) supplemented with 1 uM ATP and 1 uM MgCl2. After 2 hours of incubation, plates were washed with phosphate buffered saline containing 0.1% Tween 20 (PBST) and reblocked in 3% BSA. The pY37-H2B or pTyr antibodies (at 1:1000 dilution) were added and incubated for 1 hour. Unbound antibodies were washed and HRP-conjugated anti-mouse secondary antibodies (1:5000) were added. The magnitude of phosphorylation was detected using developer solution (OPD tablets, Sigma) and after 20 minutes of incubation, the plates were read at 450 nm.
To assess the WEE1 epigenetic activity in GBM patients, lysates were prepared from 8 GBM tumor biopsies and 3 normal brain samples as a control. The lysates were quantitated and 100 ug of lysates was used per reaction. Each reaction was performed in triplicates. […]

WEE1 [3] = molecular target: T1, WEE1; test: H4 Tyr88 peptide ELISA in vitro kinase assay with purified WEE1; assay type: biochemical; parameters: GST; purchased Invitrogen; settings: read at 450 nm
Protocol: Biotinylated unphosphorylated and Tyr88-phosphorylated H4 peptides were immobilized on streptavdin 96-well plates. […] ELISA was performed as described in text.
WEE1 and Ack1 are two non-receptor tyrosine kinases or NRTKs that have known nuclear functions. To determine whether WEE1 and Ack1 can directly target H4 for Tyr88-phosphorylation, this study performed in vitro kinase assay. In brief, the Streptavidin coated 96-well plates (R&D systems) were incubated with biotinylated H4-derived peptide […] (SEQ ID NO: 64) for 1 hour. The plates were washed and the purified WEE1 or Ack1 were added in kinase buffer (20 mM HEPES, 150 mM NaCl, 0.5% Triton X-100, 10% Glycerol, phosphatase and protease inhibitors) containing ATP and MgCl2. After 2 hours of incubation, plates were washed with phosphate buffered saline containing 0.1% Tween 20 (PBST) and blocked in 3% BSA. The pY88-H4 antibodies (at 1:500 dilution) were added and incubated for 1 hour. Unbound antibodies were washed and HRP-conjugated anti-mouse secondary Antibodies (1:2000) were added. Magnitude of phosphorylation was detected using developer solution (OPD tablets, Sigma) and the plates were read at 450 nm. As a negative control, no kinase and no peptide reactions were used. The biotinylated phosphopeptide […]p[…] (SEQ ID NO: 65) was used as a positive control.

WEE1 activity in GBM tumor lysates (WEE1 [2]): significantly reduced
H4 Tyr88-phosphorylation by WEE1 (WEE1 [3]): significantly decreased
Structure (SMILES): C=CCn1c(=O)c2cnc(Nc3ccc(N4CCN(C)CC4)cc3)nc2n1-c1cccc(C(C)(C)O)n1 [MK-1775]
occurrence of pTyr37-H2B at site I and II [1]: significantly reduced
